Experimental data from publication PMC8512560, “Design, Synthesis, and Antipoliferative Activities of Novel Substituted Imidazole-Thione Linked Benzotriazole Derivatives” (Molecules, 2021).
Values joined by “and” are separate entries in the source; they are usually repeats but may differ in a detail not shown here. Equal entries are not always repeated.

Experiments:
BAX = assay: Western blot of BAX expression in HL-60 cells; assay type: cell-based, human; conditions: HL-60, 0.5 and 1 µM, compared to the untreated group
Procedure: (§1) HL-60 cells were seeded at a density of 1 × 10^5 cells/flask in T25 flasks. […] HL-60 cells were harvested in RIPA buffer supplemented with protease inhibitors (Roche Diagnostics), phosphatase inhibitor cocktail 2 (Sigma-Aldrich), and phosphatase inhibitor cocktail 3 (Sigma-Aldrich). Equal quantities of protein (as determined by a BCA assay) were resolved by SDS-PAGE (12%) followed by transfer to PVDF membranes. Membranes were blocked in 5% bovine serum albumin/TBST for 1 h. Membranes were incubated in the relevant primary antibodies at 4 °C overnight, washed with TBST, and incubated in horseradish peroxidase conjugated secondary antibody for 1 h at rt and washed again. Western blot analysis was performed as described above using antibodies directed against BAX [1:1000] (Cell Signaling Technology), PARP [1:500] (Cell Signaling Technology) and Bcl-2 [1:500] (Cell Signaling Technology) followed by incubation with a horseradish peroxidase-conjugated anti-mouse antibody [1:2000] (Promega, Madison, WI, USA). All blots were probed with β-actin antibody [1:5000] (Sigma) to confirm equal loading. Proteins were detected using enhanced chemiluminescent Western blot detection (Clarity Western ECL substrate) (Bio Rad) on the ChemiDoc MP System (Bio Rad). Experiments were performed on three independent occasions.

HL-60 cells = assay: Cell cycle analysis by PI flow cytometry; assay type: cell-based, human; conditions: 1 µM
Procedure: HL-60 cells were seeded at a density of 1 × 10^5 cells/well in 6-well plates and treated with CA-4 and compound BI9 (1 µM) for 48 and 72 h. The cells were collected by trypsinization and centrifuged at 800× g for 15 min. Cells were washed twice with ice-cold PBS and fixed in ice-cold 70% ethanol overnight at −20 °C. Fixed cells were centrifuged at 800× g for 15 min and stained with 50 μg/mL of PI, containing 50 μg/mL of DNase-free RNase A, at 37 °C for 30 min. The DNA content of cells (10,000 cells/experimental group) was analysed by flow cytometer at 488 nm using a FACSCalibur flow cytometer (BD Biosciences, San Jose, CA, USA) and all data were recorded and analysed using the CellQuest Software (Becton-Dickinson).

[1] = system: colchicine binding site of tubulin; assay: Colchicine site competitive binding assay ([3H]colchicine); conditions: tubulin and colchicine at 1 and 5 µM
Procedure: The affinity of Benzotriazole compounds to colchicine binding site was determined using a Colchicine Site Competitive Assay kit CytoDYNAMIX Screen15 (Cytoskeleton, Inc., Denver, CO, USA) using the standard protocol of the manufacturer to determine Ki values (μM). Biotin-labelled tubulin ([…]) and the test compounds (positive control colchicine, negative control vinblastine, G-1, fluorescent G-1, or 2-ME) in a 96-well plate (final volume: 100 μL). After incubating for 2 h at 37 °C with gentle shaking, streptavidin-labelled yttrium SPA beads (80 μg in 20 μL reaction buffer, PerkinElmer, Waltham, MA) were added to each well and incubated for 30 min at 4 °C. The plates were then read on a scintillation counter (Packard Instrument, Topcount Microplate Reader) and the percentage of inhibition was calculated.

Bcl-2 = assay: Western blot of Bcl-2 expression in HL-60 cells; assay type: cell-based, human; conditions: HL-60, 0.5 and 1 µM, compared to the untreated group
Procedure: as §1

[2] = system: MCF-7, HL-60 and HCT-116 cancer cell lines; assay: MTT viability assay, values pooled over the cancer cell lines; assay type: cell-based, human; conditions: Homo sapiens, MCF-7, HL-60 and HCT-116; MTT; read-out: IC50 values range over the three cancer cell lines
Procedure: (§2) All the human tumour cell lines MCF-7, HL-60, HCT-116, and HUVEC were cultured in Dulbecco’s Modified Eagle’s Medium (DMEM) with 10% fetal bovine serum, 2 mM L-glutamine and 100 µg/mL penicillin/streptomycin. Cells were maintained at 37 °C in 5% CO2 in a humidified incubator. All cells were sub-cultured three times/week by trypsinization using TrypLE Express (1X).
(§3) The Benzotriazole compounds were evaluated for antiproliferative effect using the MTT viability assay of various cancer cell lines (MCF-7, HCT-116 and HL-60) and the normal human umbilical vein endothelial cell line (HUVEC) to calculate the relative IC50 values for each compound. Cells were seeded in triplicate in 96-well plates at a density of 10 × 10^3 cells/mL in a total volume of 200 µL per well. 0.1% of DMSO was used as a vehicle control. After this time, they were treated with 2 µL test compound which had been pre-prepared as stock solutions in ethanol to furnish the concentration range of study, 10 nM to 100 µM, and re-incubated for a further 72 h. The culture medium was then removed, and the cells washed with 100 µL phosphate buffered saline (PBS) and 50 µL MTT added, to reach a final concentration of 1 mg/mL MTT added. Cells were incubated for 2 h in darkness at 37 °C. At this point solubilisation was begun through the addition of […] DMSO and the cells maintained at room temperature in darkness for 20 min to ensure thorough colour diffusion before reading the absorbance. Plates were incubated for 72 h at 37 °C + 5% CO2. The MTT (5 mg/mL in PBS) was added and incubated for another 4 h, and the optical density was detected with a microplate reader at 570 nm. Results were expressed as percentage viability relative to vehicle control (100%). Dose response curves were plotted and IC50 values (concentration of drug resulting in 50% reduction in cell survival) were obtained using the commercial software package Prism (GraphPad Software, Inc., La Jolla, CA, USA). All the experiments were repeated in at least three independent experiments.

[3] = system: HCT-116 human colon cancer cell line; assay: MTT viability assay, HCT-116; assay type: cell-based; conditions: Homo sapiens, HCT-116, 72 h, mean ± SD of three independent experiments, read-out: Antiproliferative Activities IC50, HCT-116
Procedure: as §2, §3

Structure (SMILES): S=c1[nH]c(-n2nnc3ccccc32)cn1-c1ccc(Cl)cc1Cl [BI9, 4-(1H-Benzo[d][1,2,3]Triazol-1-yl)-1-(2,4-Dichlorophenyl)-1H-Imidazole-2(3H)-Thione]
- Expression level of pro-apoptotic Bax protein (BAX): significantly up-regulated
- Proportion of HL-60 cells in G2/M phase (HL-60 cells; 48 h): 32.3%
- Population in the sub-G1 phase (apoptosis) (HL-60 cells; 48 h, untreated cells 1.5%): 23.1%
- Proportion of HL-60 cells in G2/M phase (HL-60 cells; 72 h): 35.1%
- Population in the sub-G1 phase (apoptosis) (HL-60 cells; 72 h, untreated cells 3.5%): 27.5%
- Colchicine Binding % ± SD (inhibition of [3H]colchicine binding), 1 µM Drug ([1]; 1 µM drug): 49% and 49.38 ± 2%
- Colchicine Binding % ± SD (inhibition of [3H]colchicine binding), 5 µM Drug ([1]; 5 µM drug): 66% and 66.57 ± 2%
- Expression of pro-survival protein Bcl-2 (Bcl-2): down-regulated
- IC50 [2]: 0.4 to 3.3 µM
- IC50 [3]: 2.63 ± 0.17 µM
